Assay results taken from PubChem BioAssay (NCI).
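Five concentrations, 48 hours, 96-well plates. TGI: concentration producing complete growth inhibition.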

Experiments:
Test in all cases: inhibition of tumour cell growth, NCI panel, 48 h
HL-60(TB) leukemia = test system: HL-60(TB) leukemia
SF-295 CNS = test system: SF-295 CNS
SR leukemia = test system: SR leukemia
SF-539 CNS = test system: SF-539 CNS
K-562 leukemia = test system: K-562 leukemia
DU-145 prostate = test system: DU-145 prostate
SW-620 colon = test system: SW-620 colon
SNB-19 CNS = test system: SNB-19 CNS
BT-549 breast = test system: BT-549 breast
HCT-116 colon = test system: HCT-116 colon
HS 578T breast = test system: HS 578T breast
MDA-N = test system: MDA-N
LOX IMVI melanoma = test system: LOX IMVI melanoma
A549 NSCLC = test system: A549 NSCLC
SN12C renal = test system: SN12C renal
M14 melanoma = test system: M14 melanoma
SK-MEL-2 melanoma = test system: SK-MEL-2 melanoma
KM12 colon = test system: KM12 colon
NCI/ADR-RES ovarian = test system: NCI/ADR-RES ovarian
SNB-75 CNS = test system: SNB-75 CNS
PC-3 prostate = test system: PC-3 prostate
ACHN renal = test system: ACHN renal
TK-10 renal = test system: TK-10 renal
T-47D breast = test system: T-47D breast
OVCAR-8 ovarian = test system: OVCAR-8 ovarian
HOP-62 NSCLC = test system: HOP-62 NSCLC
UACC-257 melanoma = test system: UACC-257 melanoma
IGROV1 ovarian = test system: IGROV1 ovarian
SF-268 CNS = test system: SF-268 CNS
OVCAR-4 ovarian = test system: OVCAR-4 ovarian
MALME-3M melanoma = test system: MALME-3M melanoma
SK-MEL-28 melanoma = test system: SK-MEL-28 melanoma
EKVX NSCLC = test system: EKVX NSCLC
OVCAR-5 ovarian = test system: OVCAR-5 ovarian
UO-31 renal = test system: UO-31 renal
A498 renal = test system: A498 renal
MOLT-4 leukemia = test system: MOLT-4 leukemia
NCI-H226 lung = test system: NCI-H226 lung
HCC-2998 colon = test system: HCC-2998 colon
HT29 colon = test system: HT29 colon
MDA-MB-435 = test system: MDA-MB-435
U251 CNS = test system: U251 CNS
786-0 renal = test system: 786-0 renal
HOP-92 NSCLC = test system: HOP-92 NSCLC
NCI-H460 lung = test system: NCI-H460 lung
RPMI-8226 leukemia = test system: RPMI-8226 leukemia
HCT-15 colon = test system: HCT-15 colon
MDA-MB-231 breast = test system: MDA-MB-231 breast
NCI-H522 lung = test system: NCI-H522 lung
SK-OV-3 ovarian = test system: SK-OV-3 ovarian
UACC-62 melanoma = test system: UACC-62 melanoma
MCF7 breast = test system: MCF7 breast
OVCAR-3 ovarian = test system: OVCAR-3 ovarian
CAKI-1 renal = test system: CAKI-1 renal
COLO 205 colon = test system: COLO 205 colon
CCRF-CEM leukemia = test system: CCRF-CEM leukemia
NCI-H23 lung = test system: NCI-H23 lung

Measured: TGI

COc1ccc(Cc2cc(Cc3ccc(OC)cc3)cc(Cc3ccc(OC)cc3)c2)cc1
not listed: CAKI-1 renal | COLO 205 colon | CCRF-CEM leukemia | NCI-H23 lung
> 100 µM: all other assays above

COC(=O)c1cc(CC2Cc3cc4c(cc3C2=O)CCC4)cc2c1CCC2 (centres undefined)
not listed: HOP-92 NSCLC
> 100 µM: all other assays above
